US12538924B2, “Pesticidally active heterocyclic derivatives with sulfur containing substituents” (SYNGENTA CROP PROTECTION AG, priority 2019, dated 2026)

Legend:
Type in all cases: in vivo
[1] = test system: Diabrotica Balteata (Corn Root Worm); assay: Diabrotica balteata (Corn Root Worm), sprayed maize sprouts; settings: 96 h, application rate of 200 ppm, L2 larvae on sprayed maize sprouts, 4 days after infestation, read-out: effect in at least one of the two categories (mortality or growth inhibition)
Protocol: Example B2: Diabrotica Balteata (Corn Root Worm)
Maize sprouts placed onto an agar layer in 24-well microtiter plates were treated with aqueous test solutions prepared from 10'000 ppm DMSO stock solutions by spraying. After drying, the plates were infested with L2 larvae (6 to 10 per well). The samples were assessed for mortality and growth inhibition in comparison to untreated samples 4 days after infestation.

[2] = test system: Myzus persicae (Green Peach Aphid); assay: Myzus persicae (Green Peach Aphid): Feeding/Contact Activity; settings: foliar, 144 h, application rate of 200 ppm, aphid population of mixed ages on sprayed sunflower leaf discs, 6 days after infestation
Protocol: Example B6: Myzus persicae (Green Peach Aphid): Feeding/Contact Activity
Sunflower leaf discs were placed onto agar in a 24-well microtiter plate and sprayed with aqueous test solutions prepared from 10'000 ppm DMSO stock solutions. After drying, the leaf discs were infested with an aphid population of mixed ages. The samples were assessed for mortality 6 days after infestation.

[3] = test system: Myzus persicae (Green Peach Aphid); assay: Myzus persicae (Green Peach Aphid): Systemic Activity; settings: 144 h, test rate of 24 ppm, roots of infested pea seedlings placed into test solutions, 6 days
Protocol: Example B7: Myzus persicae (Green Peach Aphid): Systemic Activity
Roots of pea seedlings infested with an aphid population of mixed ages were placed directly into aqueous test solutions prepared from 10'000 DMSO stock solutions. The samples were assessed for mortality 6 days after placing seedlings into test solutions.

[4] = test system: Spodoptera littoralis (Egyptian Cotton Leaf Worm); assay: Spodoptera littoralis (Egyptian Cotton Leaf Worm), sprayed cotton leaf discs; settings: foliar, 72 h, application rate of 200 ppm, L1 larvae on sprayed cotton leaf discs, 3 days after infestation, read-out: control (mortality, anti-feeding effect or growth inhibition)
Protocol: Example B8: Spodoptera littoralis (Egyptian Cotton Leaf Worm)
Cotton leaf discs were placed onto agar in 24-well microtiter plates and sprayed with aqueous test solutions prepared from 10'000 ppm DMSO stock solutions. After drying the leaf discs were infested with five L1 larvae. The samples were assessed for mortality, anti-feeding effect, and growth inhibition in comparison to untreated samples 3 days after infestation. Control of Spodoptera littoralis by a test sample is given when at least one of the categories mortality, anti-feedant effect, and growth inhibition is higher than the untreated sample.

[5] = test system: Nilaparvata lugens (Brown Plant Hopper); assay: Nilaparvata lugens (Brown Plant Hopper): Larvicide, Systemic into Water; settings: 168 h, test rate of 12.5 ppm, rice plants in nutritive solution, N3 nymphs, 7 days after infestation
Protocol: Example B12: Nilaparvata lugens (Brown Plant Hopper): Larvicide, Systemic into Water
Rice plants cultivated in a nutritive solution were treated with the diluted test solutions into nourishing cultivation system. 1 day after application plants were infested with ˜20 N3 nymphs. 7 days after infestation samples were assessed for mortality and growth regulation.

[6] = test system: Plutella xylostella (Diamond Back Moth); assay: Plutella xylostella (Diamond Back Moth), treated artificial diet; settings: 192 h, application rate of 200 ppm, eggs on treated artificial diet, 8 days after infestation, read-out: effect in at least one of the two categories (mortality or growth inhibition)
Protocol: Example B5: Plutella xylostella (Diamond Back Moth)
24-well microtiter plates with artificial diet were treated with aqueous test solutions prepared from 10'000 ppm DMSO stock solutions by pipetting. After drying, Plutella eggs were pipetted through a plastic stencil onto a gel blotting paper and the plate was closed with it. The samples were assessed for mortality and growth inhibition in comparison to untreated samples 8 days after infestation.

[7] = test system: Euschistus heros (Neotropical Brown Stink Bug); assay: Euschistus heros (Neotropical Brown Stink Bug), sprayed soybean leaves; settings: 120 h, application rate of 200 ppm, N2 nymphs on sprayed soybean leaves, 5 days after infestation, read-out: effect in at least one of the two categories (mortality or growth inhibition)
Protocol: Example B3: Euschistus heros (Neotropical Brown Stink Bug)
Soybean leaves on agar in 24-well microtiter plates were sprayed with aqueous test solutions prepared from 10'000 ppm DMSO stock solutions. After drying the leaves were infested with N2 nymphs. The samples were assessed for mortality and growth inhibition in comparison to untreated samples 5 days after infestation.

[8] = test system: Nilaparvata lugens (Brown Plant Hopper); assay: Nilaparvata lugens (Brown Plant Hopper): Larvicide, Feeding/Contact; settings: 168 h, application rate of 50 ppm, N3 nymphs on sprayed rice plants, 7 days after the treatment
Protocol: Example B10: Nilaparvata lugens (Brown Plant Hopper): Larvicide, Feeding/Contact
Rice plants were treated with the diluted test solutions in a spray chamber. After drying plants were infested with ˜20 N3 nymphs. 7 days after the treatment samples were assessed for mortality and growth regulation.

[9] = test system: Nilaparvata lugens (Brown Plant Hopper); assay: Nilaparvata lugens (Brown Plant Hopper): Igr, Feeding/Contact; settings: 360 h, application rate of 50 ppm, sprayed rice plants, N3 nymphs, assessed for effect on F1 generation 15 days after the treatment
Protocol: Example B11: Nilaparvata lugens (Brown Plant Hopper): Igr, Feeding/Contact
Rice plants were treated with the diluted test solutions in a spray chamber. After drying plants were infested with ˜20 N3 nymphs. 7 days after treatment adults were removed and 15 days after the treatment samples were assessed for effect on F1 generation.

[10] = test system: Bemisia tabaci (Cotton White Fly); assay: Bemisia tabaci (Cotton White Fly): Feeding/Contact Activity; settings: foliar, 144 h, application rate of 200 ppm, adult white flies on sprayed cotton leaf discs, 6 days after incubation
Protocol: Example B1: Bemisia tabaci (Cotton White Fly): Feeding/Contact Activity
Cotton leaf discs were placed on agar in 24-well microtiter plates and sprayed with aqueous test solutions prepared from 10'000 ppm DMSO stock solutions. After drying the leaf discs were infested with adult white flies. The samples were checked for mortality 6 days after incubation.

CCS(=O)(=O)c1cccnc1N1Cc2cnc(C(F)(F)F)cc2C1=O [Compound P1, 2-(3-ethylsulfonyl-2-pyridyl)-6-(trifluoromethyl)-3H-pyrrolo[3,4-c]pyridin-1-one]
≥ 80%: percent effect (mortality or growth inhibition) at 200 ppm [1] | mortality at 200 ppm [2] | mortality at 24 ppm [3] | percent control (mortality, anti-feedant effect or growth inhibition) at 200 ppm [4] | mortality at 12.5 ppm [5] | percent effect (mortality or growth inhibition) at 200 ppm [6] | percent effect (mortality or growth inhibition) at 200 ppm [7]

CCS(=O)(=O)c1cc(C(C)(C)C#N)cnc1N1Cc2cnc(C(F)(F)F)cc2C1=O [Compound P2, 2-[5-ethylsulfonyl-6-[1-oxo-6-(trifluoromethyl)-3H-pyrrolo[3,4-c]pyridin-2-yl]-3-pyridyl]-2-methyl-propanenitrile]
≥ 80%: mortality at 50 ppm [8] | mortality at 50 ppm [9] | mortality at 200 ppm [10] | percent effect (mortality or growth inhibition) at 200 ppm [1] | mortality at 200 ppm [2] | mortality at 24 ppm [3] | percent control (mortality, anti-feedant effect or growth inhibition) at 200 ppm [4] | mortality at 12.5 ppm [5] | percent effect (mortality or growth inhibition) at 200 ppm [6] | percent effect (mortality or growth inhibition) at 200 ppm [7]

CCS(=O)(=O)c1ccc(NC)nc1N1Cc2cnc(C(F)(F)F)cc2C1=O [Compound P4, 2-[3-ethylsulfonyl-6-(methylamino)-2-pyridyl]-6-(trifluoromethyl)-3H-pyrrolo[3,4-c]pyridin-1-one]
≥ 80%: mortality at 50 ppm [8] | mortality at 50 ppm [9] | percent effect (mortality or growth inhibition) at 200 ppm [1] | mortality at 200 ppm [2] | mortality at 24 ppm [3] | percent control (mortality, anti-feedant effect or growth inhibition) at 200 ppm [4] | mortality at 12.5 ppm [5] | percent effect (mortality or growth inhibition) at 200 ppm [6] | percent effect (mortality or growth inhibition) at 200 ppm [7]

CCS(=O)(=O)c1ccc(-n2cncn2)nc1N1Cc2cnc(C(F)(F)F)cc2C1=O [Compound P5, 2-[3-ethylsulfonyl-6-(1,2,4-triazol-1-yl)-2-pyridyl]-6-(trifluoromethyl)-3H-pyrrolo[3,4-c]pyridin-1-one]
≥ 80%: mortality at 50 ppm [8] | mortality at 50 ppm [9] | mortality at 200 ppm [10] | percent effect (mortality or growth inhibition) at 200 ppm [1] | mortality at 200 ppm [2] | mortality at 24 ppm [3] | percent control (mortality, anti-feedant effect or growth inhibition) at 200 ppm [4] | mortality at 12.5 ppm [5] | percent effect (mortality or growth inhibition) at 200 ppm [6] | percent effect (mortality or growth inhibition) at 200 ppm [7]

CCS(=O)(=O)c1ccc(N(C)C(=O)NC)nc1N1Cc2cnc(C(F)(F)F)cc2C1=O [Compound P6, 1-[5-ethylsulfonyl-6-[1-oxo-6-(trifluoromethyl)-3H-pyrrolo[3,4-c]pyridin-2-yl]-2-pyridyl]-1,3-dimethyl-urea]
≥ 80%: mortality at 50 ppm [8] | mortality at 200 ppm [10] | percent effect (mortality or growth inhibition) at 200 ppm [1] | mortality at 200 ppm [2] | mortality at 24 ppm [3] | mortality at 12.5 ppm [5] | percent effect (mortality or growth inhibition) at 200 ppm [6] | percent effect (mortality or growth inhibition) at 200 ppm [7]

CCS(=O)(=O)c1cc(-n2ccc(C(F)(F)F)n2)cnc1N1Cc2cnc(C(F)(F)F)cc2C1=O [Compound P9, 2-[3-ethylsulfonyl-5-[3-(trifluoromethyl)pyrazol-1-yl]-2-pyridyl]-6-(trifluoromethyl)-3H-pyrrolo[3,4-c]pyridin-1-one]
≥ 80%: mortality at 50 ppm [9] | mortality at 200 ppm [10] | percent effect (mortality or growth inhibition) at 200 ppm [1] | mortality at 200 ppm [2] | percent control (mortality, anti-feedant effect or growth inhibition) at 200 ppm [4] | mortality at 12.5 ppm [5] | percent effect (mortality or growth inhibition) at 200 ppm [6] | percent effect (mortality or growth inhibition) at 200 ppm [7]

CCS(=O)(=O)c1cc(Oc2ccccn2)cnc1N1Cc2cnc(C(F)(F)F)cc2C1=O [Compound P12, 2-[3-ethylsulfonyl-5-(2-pyridyloxy)-2-pyridyl]-6-(trifluoromethyl)-3H-pyrrolo[3,4-c]pyridin-1-one]
≥ 80%: percent effect (mortality or growth inhibition) at 200 ppm [1] | mortality at 200 ppm [2] | mortality at 24 ppm [3] | percent control (mortality, anti-feedant effect or growth inhibition) at 200 ppm [4] | mortality at 12.5 ppm [5] | percent effect (mortality or growth inhibition) at 200 ppm [6] | percent effect (mortality or growth inhibition) at 200 ppm [7]

CCS(=O)(=O)c1cc(-n2ccc(Cl)n2)cnc1N1Cc2cnc(C(F)(F)F)cc2C1=O [Compound P13, 2-[5-(3-chloropyrazol-1-yl)-3-ethylsulfonyl-2-pyridyl]-6-(trifluoromethyl)-3H-pyrrolo[3,4-c]pyridin-1-one]
≥ 80%: mortality at 200 ppm [10] | percent effect (mortality or growth inhibition) at 200 ppm [1] | mortality at 200 ppm [2] | percent control (mortality, anti-feedant effect or growth inhibition) at 200 ppm [4] | mortality at 12.5 ppm [5] | percent effect (mortality or growth inhibition) at 200 ppm [6] | percent effect (mortality or growth inhibition) at 200 ppm [7]

CCS(=O)(=O)c1cccnc1N1Cc2ccc(S(=O)(=O)C(F)(F)F)cc2C1=O [Compound P23, 2-(3-ethylsulfonyl-2-pyridyl)-6-(trifluoromethylsulfonyl)isoindolin-1-one]
≥ 80%: mortality at 200 ppm [10] | percent effect (mortality or growth inhibition) at 200 ppm [1] | mortality at 200 ppm [2] | mortality at 24 ppm [3] | percent control (mortality, anti-feedant effect or growth inhibition) at 200 ppm [4] | percent effect (mortality or growth inhibition) at 200 ppm [6] | percent effect (mortality or growth inhibition) at 200 ppm [7]
